Results taken from patent US6603046B1, “Bis-aromatic a,β-unsaturated ketones” (Lica Pharmaceuticals A/S, priority 1992, dated 2003).
Like-named read-outs stand apart in the source and are kept apart here.

Tests used:
human lymphocytes = experiment: Lymphocyte Proliferation Assay, 3H-thymidine incorporation (Example 13); details: Homo sapiens, Lymphocyte, read-out: inhibition of lymphocytes (lower figure)
L. major promastigotes = L. major promastigotes from 4-days cultures, 3H-thymidine uptake (Examples 5, 14); format: cell-based, Leishmania major; details: Leishmania major, Table 14.1, read-out: percentage inhibition of promastigotes (upper figure); for inhibition at 0.5 µg/mL: 0.5 μg/ml; for inhibition at 1 µg/mL: 1 μg/ml; for inhibition at 5 µg/mL: 5 μg/ml; for inhibition at 10 µg/mL: 10 μg/ml
Protocol: Parasite cultures. The same parasite culture as described in Example 4. Promastigotes were harvested on day 4 of the culture and used for the parasiticidal assay.
Effect on promastigotes. […] Following incubation, […] of ^3H-thymidine was added to each well and further incubated for 18 hrs. Promastigotes were then harvested on filter paper by means of a cell harvester (Skatron, Lierbyen, Norway), extensively washed with distilled water and counted in a scintillation counter (Minaxi Ti-Carb 4000, United Technologies, Packard, USA).
L. major promastigotes. The L. major promastigotes were prepared as described in Example 4 and harvested after 4 days.

P. falciparum = P. falciparum growth in vitro (Table 14.1, strain not stated); format: cell-based; details: Plasmodium falciparum; for inhibition at 1 µg/mL: 1 μg/ml; for inhibition at 5 µg/mL: 5 μg/ml; for inhibition at 10 µg/mL: 10 μg/ml
Protocol: The P. falciparum experimental setup was as described in Example 15.
Testing of the effect of drugs and serum on the in vitro growth of the parasites. The experiments in which compounds were tested for their ability to inhibit parasite growth were performed by a modification of the method originally described by Jensen et al. (1982). Fifty μl of parasitized erythrocytes (parasitemia approximately 1%) in a concentration of 5×10^8/ml and 50 μl of RPMI medium containing different concentrations of the test compound was added to each well of a 96 well flat-bottomed microtiter plate (Nunc). The cultures were then incubated for 48 hours, 24 hours before termination of the culture adding 20 μl of 3-H-hypoxanthine (40 uCi/ml) (New England Nuclear, Boston, Mass., USA) was added to each well. The cultures were then harvested onto glass fiber filters using a Skatron cell harvester (Skatron, Lierbyen, Norway), and the incorporation of 3-H-hypoxanthine into the DNA of dividing parasites was determined by liquid scintillation spectrometry.

[1] = tested on: chloroquine resistant P. falciparum DD2 strain; experiment: In vitro growth of P. falciparum DD2, 3H-hypoxanthine uptake (Example 15); format: cell-based, Plasmodium falciparum; details: title: percentage inhibition of 3H-hypoxanthine uptake
P. yoelii strain YM = P. yoelii strain YM infection in mice, parasitemia and mortality (Example 16); format: in vivo, BALB/c mice; details: Table 16.11; for % parasitemia (mean ± SEM): 3 h after infection, D + 1 to D + 5
[2] = read-out: inhibition of malaria parasites (middle figure) (converted)
[3] = 0.5 μg/ml, read-out: inhibition of malaria parasites (middle figure) (converted)
[4] = D + 6, i.p. 20 mg/kg twice daily
[5] = D + 6, i.p. 30 mg/kg twice daily
[6] = D + 8, i.p. 20 mg/kg twice daily
[7] = D + 8, i.p. 30 mg/kg twice daily
[8] = D + 10, i.p. 20 mg/kg twice daily
[9] = D + 10, i.p. 30 mg/kg twice daily to D + 5
[10] = D + 12, i.p. 20 mg/kg twice daily
[11] = D + 14, i.p. 20 mg/kg twice daily to D + 5
[12] = D + 14, i.p. 20 mg/kg twice daily
[13] = D + 16, i.p. 20 mg/kg twice daily to D + 5
[14] = D + 16, i.p. 20 mg/kg twice daily

SMILES	inhibition at 1 µg/mL (human lymphocytes)	inhibition at 5 µg/mL (human lymphocytes)	inhibition at 10 µg/mL (human lymphocytes)	inhibition at 0.5 µg/mL (L. major promastigotes)	inhibition at 1 µg/mL (L. major promastigotes)	inhibition at 5 µg/mL (L. major promastigotes)	inhibition at 10 µg/mL (L. major promastigotes)	inhibition at 1 µg/mL (P. falciparum; [2])	inhibition at 5 µg/mL (P. falciparum; [2])	inhibition at 10 µg/mL (P. falciparum; [2])	Growth in % of control (mean ± SEM) ([1]; 0.5 μg/ml)	Growth in % of control (mean ± SEM) ([1]; 1 μg/ml)	Growth in % of control (mean ± SEM) ([1]; 5 μg/ml)	Growth in % of control (mean ± SEM) ([1]; 10 μg/ml)	further results
C=CCOc1ccc(C(=O)/C=C/c2ccc(OC)c(OC)c2)cc1 [drawing 84]	0%	0%	15.6%	15.2 ± 11.3%	30.4 ± 23.2%	70.4 ± 15.2%	90.8 ± 9.7%	11.4%	22.8%	68%	–	–	–	–	inhibition at 0.5 µg/mL (P. falciparum; read-out: inhibition of malaria parasites (middle figure)): 2.9%
C=CCOc1ccc(C(=O)/C=C/c2cccc(OC)c2OC)cc1 [drawing 81]	14.2%	8.8%	13.8%	13.9 ± 12.9%	20.7 ± 17.1%	82.1 ± 13.6%	98.1 ± 1%	17.2%	68.2%	73.1%	–	–	–	–	inhibition at 0.5 µg/mL (human lymphocytes): 10.8%; inhibition at 0.5 µg/mL (P. falciparum; [3]): 0%
COc1ccc(OC)c(/C=C/C(=O)c2ccc(O)cc2)c1 [2,5-Dimethoxy-4′-hydroxychalcone]	–	–	–	–	–	–	–	–	–	–	14 ± 75%	21.2 ± 11.1%	68.4 ± 6.8%	92.5 ± 2.4%	–
COc1cccc(/C=C/C(=O)c2ccc(O)cc2)c1OC [2,3-Dimethoxy-4′-hydroxychalcone]	–	–	–	–	–	–	–	–	–	–	46 ± 22%	54.4 ± 22.2%	53.5 ± 20.1%	67.6 ± 12.4%	–
COc1cccc(OC)c1/C=C/C(=O)c1ccc(O)cc1	3.3%	2.3%	4.4%	11.4 ± 9.2%	21.5 ± 10.6%	77.5 ± 4.3%	93.1 ± 4.6%	16.6%	71%	90.6%	–	–	–	–	inhibition at 0.5 µg/mL (human lymphocytes): 0%; inhibition at 0.5 µg/mL (P. falciparum; [3]): 0%
COc1ccc(/C=C/C(=O)c2ccc(O)cc2)c(OC)c1 [drawing 70]	6.3%	2.4%	4%	20 ± 20.6%	29 ± 22.2%	66.9 ± 15.9%	90.9 ± 7.4%	14.8%	31.6%	64.2%	–	–	–	–	inhibition at 0.5 µg/mL (human lymphocytes): 1.5%; inhibition at 0.5 µg/mL (P. falciparum; [3]): 2.2%
C=CCOc1ccc(C(=O)/C=C/c2ccc(OC)c(OC)c2)cc1 [3,4-Dimethoxy-4′-allyloxychalcone, 3,4-dimethoxy-4′-prop-2-enyloxychalcone]	–	–	–	–	–	–	–	–	–	–	0 ± 11.3%	9.4 ± 15.8%	16.2 ± 5.5%	52.8 ± 4.7%	–
CCOc1ccc(/C=C/C(=O)c2ccc(O)cc2)c(OCC)c1 [2,4-Diethoxy-4′-hydroxychalcone]	–	–	–	–	–	–	–	–	–	–	14.5 ± 7.2%	9 ± 7%	54.2 ± 10.2%	86.8 ± 7.3%	–
COc1ccc(/C=C/C(=O)c2ccc(O)cc2)c(OC)c1 [2,4-Dimethoxy-4′-hydroxychalcone, 2,4-dimethoxy-4′-hydroxychalcone]	–	–	–	–	–	–	–	–	–	–	18.6 ± 7.2%	21.8 ± 7.3%	46.8 ± 6.6%	68.0 ± 4.7%	% parasitemia (mean ± SEM) (P. yoelii strain YM; [4]): 4.8 ± 1.5%; % parasitemia (mean ± SEM) (P. yoelii strain YM; [5]): 46.4 ± 2.1%; mortality (no. of dead mice/total no. of tested mice) (P. yoelii strain YM; D + 6, i.p. 40 mg/kg twice daily to D + 5): (5/5); % parasitemia (mean ± SEM) (P. yoelii strain YM; [6]): 12.4 ± 2.4%; mortality (no. of dead mice/total no. of tested mice) (P. yoelii strain YM; D + 8, i.p. 30 mg/kg twice daily to D + 5): (1/5); % parasitemia (mean ± SEM) (P. yoelii strain YM; [7]): 70.8 ± 3.5%; % parasitemia (mean ± SEM) (P. yoelii strain YM; [8]): 58.6 ± 14%; mortality (no. of dead mice/total no. of tested mice) (P. yoelii strain YM; [9]): (5/5); mortality (no. of dead mice/total no. of tested mice) (P. yoelii strain YM; D + 12, i.p. 20 mg/kg twice daily to D + 5): 3/5; % parasitemia (mean ± SEM) (P. yoelii strain YM; [10]): 25%; mortality (no. of dead mice/total no. of tested mice) (P. yoelii strain YM; [11]): 3/5; % parasitemia (mean ± SEM) (P. yoelii strain YM; [12]): 6%; mortality (no. of dead mice/total no. of tested mice) (P. yoelii strain YM; [13]): 3/5; % parasitemia (mean ± SEM) (P. yoelii strain YM; [14]): 0%
COCOc1ccc(C(=O)/C=C/c2ccc(OC)cc2OC)cc1 [2,4-Dimethoxy-4′-methoxymethoxychalcone, 2,4-dimethoxy-4′-methoxymethoxychalcone]	–	–	–	–	–	–	–	–	–	–	14.0 ± 6.8%	0 ± 10.9%	0 ± 10.2%	40.8 ± 9.3%	–
COc1ccc(/C=C/C(=O)c2ccccc2O)c(OC)c1	5.5%	2.6%	0%	19.2 ± 18.1%	37.6 ± 18.3%	89.4 ± 13.8%	98.3 ± 1%	0.8%	23.4%	67.9%	–	–	–	–	inhibition at 0.5 µg/mL (human lymphocytes): 3%; inhibition at 0.5 µg/mL (P. falciparum; [3]): 0%
C=CCOc1ccc(C(=O)/C=C/c2ccc(OC)cc2OC)cc1 [2,4-Dimethoxy-4′-allyloxychalcone, 2,4-dimethoxy-4′-prop-2-enyloxychalcone]	–	–	–	–	–	–	–	–	–	–	29.1 ± 10.8%	23.6 ± 11.2%	44.3 ± 10.5%	75.2 ± 7.8%	% parasitemia (mean ± SEM) (P. yoelii strain YM; [4]): 0.4 ± 0.2%; % parasitemia (mean ± SEM) (P. yoelii strain YM; [5]): 37.4 ± 0.9%; % parasitemia (mean ± SEM) (P. yoelii strain YM; D + 6, i.p. 40 mg/kg twice daily): 55.8 ± 1.5%; % parasitemia (mean ± SEM) (P. yoelii strain YM; [6]): 0.8 ± 0.2%; % parasitemia (mean ± SEM) (P. yoelii strain YM; [7]): 67.2 ± 0.9%; mortality (no. of dead mice/total no. of tested mice) (P. yoelii strain YM; D + 8, i.p. 40 mg/kg twice daily to D + 5): (2/5); % parasitemia (mean ± SEM) (P. yoelii strain YM; D + 8, i.p. 40 mg/kg twice daily): 83 ± 2.1%; % parasitemia (mean ± SEM) (P. yoelii strain YM; [8]): 14.3 ± 4.0%; mortality (no. of dead mice/total no. of tested mice) (P. yoelii strain YM; [9]): (5/5); mortality (no. of dead mice/total no. of tested mice) (P. yoelii strain YM; D + 10, i.p. 40 mg/kg twice daily to D + 5): (5/5); % parasitemia (mean ± SEM) (P. yoelii strain YM; [10]): 32.4 ± 4.0%; mortality (no. of dead mice/total no. of tested mice) (P. yoelii strain YM; [11]): 3/5; % parasitemia (mean ± SEM) (P. yoelii strain YM; [12]): 7%; mortality (no. of dead mice/total no. of tested mice) (P. yoelii strain YM; [13]): 3/5; % parasitemia (mean ± SEM) (P. yoelii strain YM; [14]): 0%
COc1ccc(OC)c(/C=C/C(=O)c2ccccc2)c1 [2,5-Dimethoxychalcone]	–	–	–	–	–	–	–	–	–	–	11 ± 7.7%	5.5 ± 5.1%	27.1 ± 5.3%	58.8 ± 6.4%	–
C=CCOc1ccc(C(=O)/C=C/c2cc(OC)cc(OC)c2)cc1 [3,5-Dimethoxy-4′-allylchalcone, 3,5-dimethoxy-4′-prop-2-enyloxychalcone]	–	–	–	–	–	–	–	–	–	–	9.1 ± 5.2%	3.4 ± 4.7%	44 ± 8.1%	79.1 ± 10.5%	–
CCOc1ccc(/C=C/C(=O)c2ccccc2O)c(OCC)c1 [2,4-Diethoxy-2′-hydroxychalcone]	–	–	–	–	–	–	–	–	–	–	23.1 ± 8.3%	20.8 ± 8.8%	33.7 ± 8.2%	55.3 ± 7.4%	–
